According to patent US20240400572A1, “COMPOUNDS AND METHODS FOR TREATING CANCERS THAT ARE MGMT DEFICIENT REGARDLESS OF MMR STATUS” (Yale University, priority 2021, published 2024):
“And” between values parts separate entries of the source, which are not always exact repeats. Equal entries are not always repeated. Where two headings read alike, the source gives them in different places.

Assays:
[1] = Pharmacokinetic study, plasma; format: in vivo; settings: male C57BL/6 mice; for plasma Concentration, Individuals / AUC(0-inf) / AUC(0-t) / Cmax / MRT inf / Tmax / half-life: PO 20 mg/kg; for plasma Concentration, Individuals / concentration at 0.083 hr / concentration at 0.167 hr / concentration at 0.333 hr / concentration at 0.5 hr / concentration at 0.75 hr / concentration at 1 hr / concentration at 2 hr / concentration at 4 hr / concentration at 8 hr: 20 mg/kg; for concentration at 0.083 hr / concentration at 0.167 hr / concentration at 0.333 hr / concentration at 0.5 hr / concentration at 0.75 hr / concentration at 1 hr / concentration at 2 hr / concentration at 4 hr / concentration at 8 hr: male, C57BL/6, mouse, po; for concentration at 0.083 hr / concentration at 0.167 hr / concentration at 0.333 hr / concentration at 0.5 hr / concentration at 0.75 hr / concentration at 1 hr / concentration at 2 hr / concentration at 4 hr / concentration at 8 hr / AUC(0-inf) / AUC(0-t) / Cmax / MRT inf / Tmax / half-life: plasma; for concentration at 8 hr: N=3; for AUC(0-inf) / AUC(0-t) / Cmax / MRT inf / Tmax / half-life: mouse
Protocol: Compound KL50 dosing solution: 3.39% DMSO+96.61% (10% HP-β-CD in saline) at 2 mg/mL; • 1) Weigh 17.39 mg of compound KL50 into a clean tube. • 2) Add 0.295 mL DMSO into the tube containing the compound. • 3) Vortex the tube for 3 min and sonicate it for 4 min. • 4) Add 8.400 mL 10% HP-β-CD in saline into the tube and vortex the tube for 3 min. Compound I-1 dosing solution: 3.39% DMSO+96.61% (10% HP-β-CD in saline) at 2 mg/mL; • 1) Weigh 16.86 mg Compound I-1 into a clean tube. • 2) Add 0.286 mL DMSO into the tube containing the compound. • 3) Vortex the tube for 3 min and sonicate it for 4 min. • 4) Add 8.144 mL 10% HP-β-CD in saline into the tube and vortex the tube for 3 min.
The in-vivo pharmacokinetic and brain distribution study was conducted under the following parameters. Twenty seven C57BL/6 male mice were purchased from Shanghai JiHui Laboratory Animal Co. LTD. Each mouse weighted from 16 g to 17 g. The mice were fasted overnight and fed post 4 hr sampling. Compound KL50 and Compound I-I were administered via oral gavage (PO) at a dose of 20 mg/kg (10 mL/kg). After dosing, sampling was completed at 0.083, 0.167, 0.333, 0.5, 0.75, 1, 2, 4 and 8 hr post dose, with three mice sacrificed at each time point.
Terminal bleeding for plasma and brain was completed at each time point. Approximately 110 μL blood per time point was collected into a K2EDTA tube via the facial vein. The blood sample was put on wet ice and centrifuged to obtain plasma sample (2000 g, 5 min under 4° C.) within 15 minutes. Plasma samples were acidified with 6 μL of formic acid for every 54 μL of plasma. After blood collection, a mid-line incision was made in the animal's scalp and the skin was retracted. The skull overlying the brain was removed. Then, the whole brain was collected, rinsed with cold saline, dried on filtrate paper, and weighed; and then snap frozen by placing the brain into dry-ice. Plasma samples were stored at approximately −70° C. until analysis. Brain tissue was homogenized with 3 volumes (v/w) of PBS (1% FA) and then analyzed with LC-MS/MS. The concentration of study drug was corrected with a dilution factor of four as following: Brain concentration=brain homogenate conc.×4, assuming 1 g wet brain tissue equals to 1 mL

[2] = tested on: CHK1 and CHK2 phosphorylation in LN229 MGMT+/−, MMR+/− cells; test: Western blotting of checkpoint kinase phosphorylation; format: cell-based, human; settings: 20 μM, 24 or 48 h
Protocol: Western Blotting. For phospho-protein analysis experiments, cells were lysed in 1× RIPA buffer (Cell Signaling Technology, #9806) supplemented with 1× Protease Inhibitor Cocktail (Roche) and 1× PhosSTOP Phosphatase Inhibitor Cocktail (Sigma). For all other western blot analyses, cells were lysed in lysis buffer (50 mM HEPES, 250 mM NaCl, 5 mM EDTA, 1% NP-40) supplemented with 1× Protease Inhibitor Cocktail (Roche). The de-ubiquitination inhibitor N-ethylmaleimide (NEM, 4 mM) was added in FANCD2 ubiquitination analysis experiments. Proteins were separated using NuPAGE 4-12% Bis-Tris or 3-8% Tris-Acetate Gels (Invitrogen) and transferred to Immobilon-P PVDF membrane (Millipore) for western blotting. Membranes were blocked with 5% milk in TBS-T for 1 h prior to primary antibody addition overnight at 4° C. […] Where shown, bands were quantified using ImageJ software.

[3] = 0.083 hr, N=3, read-out: plasma Concentration, Mean
[4] = 0.083 hr, read-out: plasma Concentration, Individuals
[5] = 0.167 hr, N=3, read-out: plasma Concentration, Mean
[6] = 0.167 hr, read-out: plasma Concentration, Individuals
[7] = 0.333 hr, N=3, read-out: plasma Concentration, Mean
[8] = 0.333 hr, read-out: plasma Concentration, Individuals
[9] = 0.5 hr, N=3, read-out: plasma Concentration, Mean
[10] = 0.5 hr, read-out: plasma Concentration, Individuals
[11] = 0.75 hr, N=3, read-out: plasma Concentration, Mean
[12] = 0.75 hr, read-out: plasma Concentration, Individuals
[13] = 1 hr, N=3, read-out: plasma Concentration, Mean
[14] = 1 hr, read-out: plasma Concentration, Individuals
[15] = 2 hr, N=3, read-out: plasma Concentration, Mean
[16] = 4 hr, N=3, read-out: plasma Concentration, Mean

SMILES | plasma Concentration, Individuals ([1]; 0.083 hr) | plasma Concentration, Individuals ([1]; 0.167 hr) | plasma Concentration, Individuals ([1]; 0.333 hr) | plasma Concentration, Individuals ([1]; 0.5 hr) | plasma Concentration, Individuals ([1]; 0.75 hr) | plasma Concentration, Individuals ([1]; 1 hr) | plasma Concentration, Individuals ([1]; 2 hr) | plasma Concentration, Individuals ([1]; 4 hr) | plasma Concentration, Individuals ([1]; 8 hr) | concentration at 0.083 hr [1, 3] [µg/mL] | concentration at 0.083 hr [1, 4] [µg/mL] | concentration at 0.167 hr [1, 5] [µg/mL] | concentration at 0.167 hr [1, 6] [µg/mL] | concentration at 0.333 hr [1, 7] [µg/mL] | concentration at 0.333 hr [1, 8] [µg/mL] | concentration at 0.5 hr [1, 9] [µg/mL] | concentration at 0.5 hr [1, 10] [µg/mL] | concentration at 0.75 hr [1, 11] [µg/mL] | concentration at 0.75 hr [1, 12] [µg/mL] | concentration at 1 hr [1, 13] [µg/mL] | also measured
CNC(=O)c1ncn2c(=O)n(CCF)nnc12 [Compound I-1, 3-(2-fluoroethyl)-N-methyl-4-oxo-3H,4H-imidazo[4,3-d][1,2,3,5]tetrazine-8-carboxamide] | 20.3 µg/mL and 20.5 µg/mL | 15 µg/mL and 16.6 µg/mL | 11.3 µg/mL and 13.4 µg/mL | 7.05 µg/mL and 7.19 µg/mL | 4.01 µg/mL and 3.43 µg/mL | 1.52 µg/mL and 2.43 µg/mL | 0.359 µg/mL and 0.714 µg/mL and 0.185 µg/mL | 0.00501 µg/mL and 0.00242 µg/mL and 0.00321 µg/mL | 0.00265 µg/mL and 0.00563 µg/mL and 0.00733 µg/mL | 20.7 | 21.2 | 14.3 | 11.3 | 11.2 | 8.83 | 6.85 | 6.3 | 3.81 | 3.98 | 2.04 | concentration at 1 hr [1, 14]: 2.18 µg/mL; concentration at 2 hr [1, 15]: 0.419 µg/mL; concentration at 4 hr [1, 16]: 0.00355 µg/mL; concentration at 8 hr ([1]; 8 hr): 0.0052 µg/mL; AUC(0-inf) [1]: 9.69 µg·h/mL; AUC(0-t) [1]: 9.68 µg·h/mL; Cmax [1]: 20.7 µg/mL; MRT inf [1]: 32.2 min; Tmax [1]: 4.98 min; half-life [1]: 37.3 min
NC(=O)c1ncn2c(=O)n(CCF)nnc12 [KL-50, 3-(2-fluoroethyl)-4-oxo-3H,4H-imidazo[4,3-d][1,2,3,5]tetrazine-8-carboxamide] | 25.6 µg/mL and 28 µg/mL | 22.9 µg/mL and 18.1 µg/mL | 14.5 µg/mL and 20.9 µg/mL | 12.4 µg/mL and 15.3 µg/mL | 11 µg/mL and 10.2 µg/mL | 7.34 µg/mL and 12.3 µg/mL | 2.75 µg/mL and 4.57 µg/mL | 1.59 µg/mL and 0.796 µg/mL | 0.305 µg/mL and 0.104 µg/mL and 0.185 µg/mL | 25.3 | 22.3 | 21.8 | 24.5 | 18.1 | 19 | 14 | 14.4 | 10.3 | 9.59 | 10 | concentration at 1 hr [1, 14]: 10.5 µg/mL; concentration at 2 hr [1, 15]: 3.3 µg/mL; concentration at 2 hr ([1]; 2 hr, read-out: plasma Concentration, Individuals): 2.58 µg/mL; concentration at 4 hr [1, 16]: 1.15 µg/mL; concentration at 4 hr ([1]; 4 hr, read-out: plasma Concentration, Individuals): 1.06 µg/mL; concentration at 8 hr ([1]; 8 hr): 0.198 µg/mL; AUC(0-inf) [1]: 28.9 µg·h/mL; AUC(0-t) [1]: 28.4 µg·h/mL; Cmax [1]: 25.3 µg/mL; MRT inf [1]: 88.2 min; Tmax [1]: 4.98 min; half-life [1]: 89.4 min; CHK1 and CHK2 phosphorylation (in words) [2]: induced CHK1 and CHK2 phosphorylation in MGMT− cells regardless of MMR status
Cn1nnc2c(C(N)=O)ncn2c1=O [TMZ, temozolomide, reference compound] | – | – | – | – | – | – | – | – | – | – | – | – | – | – | – | – | – | – | – | – | CHK1 and CHK2 phosphorylation (in words) [2]: only induced phospho-CHK1 and —CHK2 in MGMT−/MMR+ cells
